US20240200050A1, “AMINOACYL TRANSFER RNA SYNTHETASES” (Trustees of Tufts College, priority 2021, published 2024)

Assays:
[1] = system: ncAA-substituted synthetic antibody clones; assay: UV-mediated photocrosslinking of ncAA-substituted synthetic antibody clones on the yeast surface; settings: identical sets of crosslinking conditions
Experimental: (§1) Experiments were undertaken to expand the tools available for genetically encoding crosslinkable ncAAs in proteins produced in yeast. As described in the above examples, a large number of aminoacyl-tRNA synthetase (aaRS) variants were discovered that support translation with a broad set of ncAAs. Here, several of these aaRSs were evaluated alongside previously described variants to evaluate their support of protein translation with the ncAAs O-(2-bromoethyl)tyrosine (Obey), 4-benzoyl-1-phenylalanine (Bpa), or N^6-((2-(3-methyl-3H-diazirin-3-yl)ethoxy)carbonyl)-L-lysine (Photo-Lysine, Phk) (FIG. 12A). Although none of these ncAAs were used in any of the screening efforts described in the above Examples. several variants from the screens were nevertheless identified that supported translation at moderate to high efficiencies with Obey and Phk. […] The potential utility of these spontaneously crosslinkable and photocrosslinkable ncAAs was also investigated. […] The display and binding activities of these peptides were confirmed. […] For the cases of Phk and Bpa, photocrosslinkability on the yeast surface was investigated utilizing ncAA-substituted synthetic antibody clones and alongside AzF-substituted clones known to undergo UV-mediated crosslinking.

[2] = system: antigen; assay: Antigen binding of yeast-displayed synthetic antibody fragments substituted with ncAAs; settings: ncAA incorporated into yeast-displayed synthetic antibody fragments
Experimental: as §1

[3] = biological target: streptavidin (Streptomyces avidinii, UniProt P22629); assay: Display and binding of ncAA-substituted anti-streptavidin peptides on the yeast surface
Experimental: as §1

streptavidin, sequence (P22629 25-183, species assumed): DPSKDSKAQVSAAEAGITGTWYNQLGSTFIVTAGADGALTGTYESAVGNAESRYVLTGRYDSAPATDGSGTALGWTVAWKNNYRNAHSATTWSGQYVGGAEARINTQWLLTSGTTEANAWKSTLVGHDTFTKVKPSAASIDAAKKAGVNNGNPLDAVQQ

SMILES | crosslinking on the yeast surface (in words) [1] | antigen binding of ncAA-substituted constructs (in words) [2] | display and binding activities of ncAA-substituted peptides (in words) [3]
[N-]=[N+]=Nc1ccc(C[C@H](N)C(=O)O)cc1 [AzF, p-azido-L-phenylalanine] | clear evidence | – | –
N[C@@H](Cc1ccc(C(=O)c2ccccc2)cc1)C(=O)O [Bpa, 4-benzoyl-1-phenylalanine] | clear evidence | retained antigen binding | –
C#CCOc1ccc(C[C@H](N)C(=O)O)cc1 [OPG, p-propargyloxy-L-phenylalanine] | – | – | confirmed
N[C@@H](Cc1ccc(OCCBr)cc1)C(=O)O [Obey, O-(2-Bromoethyl)-L-tyrosine] | – | retained antigen binding | confirmed
CC1(CCOC(=O)NCCCC[C@H](N)C(=O)O)N=N1 [Phk, N^6-((2-(3-methyl-3H-diazirin-3-yl)ethoxy)carbonyl)-L-lysine] | did not appear to undergo detectable crosslinking | retained antigen binding | –
